Among the test systems are CCRF-CEM; NCI-H460; HCT-116; SF-268; OVCAR-3; DU-145; OVCAR-8; A549; SK-OV-3; OVCAR-4; UO-31; KM12; MDA-MB-435; HOP-92; NCI-H226; BT-549; SK-MEL-2; SR; NCI-H522; SF-295.
Holding throughout (assay): NCI anticancer screen, dose series, 48 h

The text below walks through data of ChEMBL document CHEMBL1201862, “PubChem BioAssay data set” (2004).

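In this assay, cells in 96-well plates receive the compound at five concentrations for 48 hours. Endpoints are linearly interpolated between the surrounding concentrations. GI50: concentration for 50% inhibition of growth.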 The source made the active and inactive calls. No stated cut-off is given here; in the data, active = GI50 up to about 1.1 µM and inactive = higher.

As to `COc1c(-c2nc3ccc(N4CCN(C)CC4)cc3[nH]2)cc(OC)c2[nH]c(CO)nc12`, the GI50 was 13.3 µM (inactive) with CCRF-CEM; 91 µM (inactive) in the experiment with NCI-H460; 58.6 µM (inactive) with HCT-116; > 100 µM (inactive) in the experiment with SF-268; > 100 µM (inactive) with OVCAR-3; 84.5 µM (inactive) in the experiment on DU-145. Besides, the GI50 was > 100 µM (inactive) with OVCAR-8; > 100 µM (inactive) in the experiment on A549; > 100 µM (inactive) with SK-OV-3; 72.6 µM (inactive) with OVCAR-4; > 100 µM (inactive) with UO-31; 49.3 µM (inactive) with KM12. In addition, the GI50 in the experiment with MDA-MB-435 was 69.5 µM (inactive); in the experiment with HOP-92, > 100 µM (inactive); in the experiment with NCI-H226, > 100 µM (inactive); in the experiment with BT-549, > 100 µM (inactive); in the experiment on SK-MEL-2, > 100 µM (inactive); in the experiment on SR it was > 100 µM (inactive). Also, the GI50 in the experiment with NCI-H522 was 65.2 µM (inactive); with SF-295, > 100 µM (inactive).

With `Cc1ccc(/N=N/c2c(O)ccc3cc(S(=O)(=O)O)cc(S(=O)(=O)O)c23)cc1`, the GI50 with CCRF-CEM, in the experiment with NCI-H460, in the experiment on HCT-116, with SF-268, with OVCAR-3 and with DU-145 was > 100 µM (inactive) in each case. Besides, the GI50 in the experiment on OVCAR-8, in the experiment on A549, with SK-OV-3, with OVCAR-4, in the experiment on UO-31 and in the experiment with KM12 was > 100 µM (inactive) in each case. The GI50 with MDA-MB-435, with HOP-92, in the experiment with NCI-H226, in the experiment on BT-549, in the experiment on SK-MEL-2 and with SR was > 100 µM (inactive) in each case. Besides, the GI50 with NCI-H522 and in the experiment with SF-295 was > 100 µM (inactive) each time.

`CCCC(=O)Nc1cc(/C=C/C(=O)N2CC(CCl)c3c2cc(OC(C)=O)c2[nH]cc(C)c32)n(C)c1` (stereo not given): the GI50 in the experiment on CCRF-CEM, in the experiment on NCI-H460, with HCT-116, with SF-268, in the experiment on OVCAR-3 and in the experiment on DU-145 was < 2.5e-05 µM (active) throughout. Also, the GI50 in the experiment with OVCAR-8 was < 2.5e-05 µM (active); in the experiment with A549, 8.19e-05 µM (active); in the experiment with SK-OV-3, 7.05e-05 µM (active); in the experiment on OVCAR-4, < 2.5e-05 µM (active); in the experiment with UO-31, 6.84e-05 µM (active); with KM12 it was 8.73e-05 µM (active). Also, the GI50 is 4.95e-05 µM (active) in the experiment on MDA-MB-435; 4.28e-05 µM (active) in the experiment with HOP-92; 4.33e-05 µM (active) in the experiment on NCI-H226; 8.09e-05 µM (active) in the experiment on BT-549; 5.92e-05 µM (active) with SK-MEL-2; < 2.5e-05 µM (active) in the experiment on SR. Besides, the GI50 in the experiment on NCI-H522 is < 2.5e-05 µM (active); in the experiment on SF-295, 4.52e-05 µM (active).

In the case of `CCCCCCc1cc2cc(-c3cn4ccccc4n3)c(=O)oc2cc1O`, the GI50 in the experiment on CCRF-CEM was 19.5 µM (inactive); in the experiment with NCI-H460, 15 µM (inactive); in the experiment on HCT-116 it was 4.55 µM (inactive); with SF-268, 2.32 µM (inactive); in the experiment with OVCAR-3 it was 4.38 µM (inactive); in the experiment with DU-145 it was 5.11 µM (inactive). Besides, the GI50 in the experiment on OVCAR-8 is 6.3 µM (inactive); in the experiment on A549, 16.5 µM (inactive); in the experiment on SK-OV-3, 13.6 µM (inactive); in the experiment with OVCAR-4, 4.66 µM (inactive); in the experiment on UO-31, 8.39 µM (inactive); in the experiment with KM12, 16.1 µM (inactive). Also, the GI50 in the experiment with MDA-MB-435 is 5.24 µM (inactive); in the experiment with HOP-92 it was 15.5 µM (inactive); in the experiment with NCI-H226, 19.1 µM (inactive); in the experiment on BT-549, 10.1 µM (inactive); in the experiment with SK-MEL-2, 13.6 µM (inactive); with SR it was 5.57 µM (inactive). Also, the GI50 in the experiment on NCI-H522 was 5.37 µM (inactive); in the experiment on SF-295, 15.1 µM (inactive).

For `COc1ccc(NC/C=C/C(=C/COC(C)=O)OC(C)=O)cc1`, the GI50 is 1.77 µM (inactive) with CCRF-CEM; 2.08 µM (inactive) in the experiment with NCI-H460; 1.81 µM (inactive) in the experiment on HCT-116; 2.52 µM (inactive) in the experiment with SF-268; 2 µM (inactive) in the experiment on OVCAR-3; 3.11 µM (inactive) in the experiment with DU-145. The GI50 with OVCAR-8 is 4.23 µM (inactive); in the experiment on A549 it was 15.3 µM (inactive); with SK-OV-3, 14.9 µM (inactive); with OVCAR-4 it was 1.82 µM (inactive); in the experiment on UO-31, 12.3 µM (inactive); in the experiment on KM12, 0.448 µM (active). Moreover, the GI50 in the experiment with MDA-MB-435 was 1.73 µM (inactive); in the experiment with HOP-92, 1.8 µM (inactive); in the experiment with NCI-H226 it was 19.3 µM (inactive); with BT-549 it was 1.59 µM (inactive); in the experiment with SK-MEL-2, 2.28 µM (inactive); in the experiment on SR it was 0.514 µM (active). Further, the GI50 in the experiment with NCI-H522 is 2.72 µM (inactive); in the experiment on SF-295 it was 2.12 µM (inactive).

`CCOC(=O)Nc1nc2cc(Cn3cccc3)ccc2[nH]1`: the GI50 with CCRF-CEM was 0.581 µM (active); in the experiment with NCI-H460, 0.802 µM (active); in the experiment on HCT-116 it was 1.02 µM (active); with SF-268, 8.73 µM (inactive); with OVCAR-3 it was 1.13 µM (inactive); in the experiment on DU-145, 1.78 µM (inactive). Further, the GI50 in the experiment on OVCAR-8 is 2.39 µM (inactive); with A549, 1.22 µM (inactive); in the experiment with SK-OV-3, 1.5 µM (inactive); in the experiment with OVCAR-4, 16.2 µM (inactive); in the experiment with UO-31, 14.4 µM (inactive); with KM12, 0.853 µM (active). Further, the GI50 in the experiment on MDA-MB-435 is 0.123 µM (active); with HOP-92, 32.2 µM (inactive); in the experiment with NCI-H226 it was 15.8 µM (inactive); in the experiment on BT-549 it was > 20.2 µM (inactive); with SK-MEL-2 it was 2.01 µM (inactive); in the experiment on SR, 0.735 µM (active). Besides, the GI50 in the experiment with NCI-H522 is 0.533 µM (active); in the experiment with SF-295, 0.807 µM (active).

As for `CC(=O)OCC1OC(O[C@@H]2c3c(O)c4c(c(O)c3C3=C(NN(c5ccc([N+](=O)[O-])cc5[N+](=O)[O-])[Se]3=O)[C@@]2(C)O)C(=O)c2ccccc2C4=O)C(OC(C)=O)C(OC(C)=O)C1OC(C)=O` (stereo not given in full), the GI50 in the experiment on CCRF-CEM is 0.0352 µM (active); in the experiment with NCI-H460 it was 0.192 µM (active); in the experiment on HCT-116, 0.141 µM (active); with SF-268 it was 0.139 µM (active); in the experiment with OVCAR-3 it was 0.158 µM (active); with DU-145 it was 0.365 µM (active). For the same compound, the GI50 with OVCAR-8 was 0.191 µM (active); in the experiment on A549, 0.314 µM (active); in the experiment on SK-OV-3 it was 0.281 µM (active); in the experiment on OVCAR-4, 0.201 µM (active); with UO-31, 0.239 µM (active); in the experiment with KM12 it was 0.338 µM (active). Also, the GI50 with MDA-MB-435 is 0.145 µM (active); with HOP-92, 0.451 µM (active); in the experiment with NCI-H226 it was 0.31 µM (active); in the experiment with BT-549, 0.489 µM (active); in the experiment on SK-MEL-2 it was 0.212 µM (active); in the experiment on SR, 0.179 µM (active). The GI50 in the experiment on NCI-H522 was 0.124 µM (active); in the experiment on SF-295, 0.21 µM (active).

For `COc1cc(C(c2cccc3ccccc23)N2C(=O)CCC2C(=O)NCc2ccccc2)cc(OC)c1OC` (stereo not given), the GI50 in the experiment on CCRF-CEM is 93.3 µM (inactive); in the experiment on NCI-H460, > 100 µM (inactive); in the experiment with HCT-116 it was > 100 µM (inactive); in the experiment with SF-268, > 100 µM (inactive); in the experiment with OVCAR-3, > 100 µM (inactive); in the experiment on DU-145, > 100 µM (inactive). The GI50 with OVCAR-8, in the experiment on A549, with SK-OV-3, in the experiment with OVCAR-4, with UO-31 and in the experiment with KM12 was > 100 µM (inactive) in each case. Besides, the GI50 in the experiment with MDA-MB-435, in the experiment with HOP-92, with NCI-H226, with BT-549, in the experiment with SK-MEL-2 and in the experiment on SR was > 100 µM (inactive) each time. For the same compound, the GI50 in the experiment on NCI-H522 and in the experiment with SF-295 was > 100 µM (inactive) throughout.

On to `C=C(CN(C)C)C(=O)c1ccccc1`, for which the GI50 is 0.631 µM (active) in the experiment on CCRF-CEM; 18.4 µM (inactive) with NCI-H460; 5.51 µM (inactive) in the experiment on HCT-116; 24.5 µM (inactive) with SF-268; 3.63 µM (inactive) in the experiment with OVCAR-3; 16.6 µM (inactive) in the experiment on DU-145. The GI50 was 19.5 µM (inactive) in the experiment on OVCAR-8; 22.5 µM (inactive) in the experiment on A549; 21.7 µM (inactive) in the experiment on SK-OV-3; 11.4 µM (inactive) in the experiment on OVCAR-4; 6.93 µM (inactive) in the experiment on UO-31; 19.9 µM (inactive) in the experiment on KM12. The GI50 in the experiment on MDA-MB-435 is 14.1 µM (inactive); with HOP-92, 2.06 µM (inactive); in the experiment on NCI-H226, 18.3 µM (inactive); with BT-549, 11.2 µM (inactive); in the experiment with SK-MEL-2, 15.2 µM (inactive); in the experiment with SR it was 2.09 µM (inactive). In addition, the GI50 in the experiment on NCI-H522 is 1.02 µM (active); in the experiment on SF-295, 31.4 µM (inactive).

As to `NC(=O)NN=C1Cc2ccccc2C1`, the GI50 in the experiment on CCRF-CEM, in the experiment with NCI-H460, in the experiment on HCT-116, with SF-268, in the experiment with OVCAR-3 and in the experiment on DU-145 was > 100 µM (inactive) each time. The GI50 with OVCAR-8, in the experiment on A549, in the experiment on SK-OV-3, with OVCAR-4, with UO-31 and with KM12 was > 100 µM (inactive) throughout. Besides, the GI50 in the experiment with MDA-MB-435, in the experiment with HOP-92, in the experiment with NCI-H226, in the experiment on BT-549, in the experiment with SK-MEL-2 and in the experiment on SR was > 100 µM (inactive) throughout. Moreover, the GI50 in the experiment with NCI-H522 and in the experiment with SF-295 was > 100 µM (inactive) each time.
